{"source": "ChEMBL document CHEMBL4732067", "about": "“Synthesis and evaluation of new compounds bearing 3-(4-aminopiperidin-1-yl)methyl magnolol scaffold as anticancer agents for the treatment of non-small cell lung cancer via targeting autophagy” (Eur J Med Chem, 2021)", "key": {"[1]": {"tested_on": "NCI-H460", "assay": "Induction of apoptosis in human NCI-H460 cells assessed as viable cells at 2 uM after 48 hrs by Annexin V-FITC/propidium iodide staining based flow cytometric analysis (reference value: 91.528 %)", "format": "functional", "details": "read-out: Activity"}, "[2]": {"tested_on": "NCI-H460", "assay": "Induction of apoptosis in human NCI-H460 cells assessed as viable cells at 10 uM after 48 hrs by Annexin V-FITC/propidium iodide staining based flow cytometric analysis (reference value: 91.528 %)", "format": "functional", "details": "read-out: Activity"}, "[3]": {"tested_on": "NCI-H460", "assay": "Induction of apoptosis in human NCI-H460 cells assessed as necrotic cells at 2 uM after 48 hrs by Annexin V-FITC/propidium iodide staining based flow cytometric analysis (reference value: 0.498 %)", "format": "functional"}, "[4]": {"tested_on": "NCI-H460", "assay": "Antitumor activity against human NCI-H460 cells xenografted in nude BABL/c mouse assessed as tumor growth inhibition at 40 mg/kg, po administered once daily and measured every two days by caliper method relative to control", "format": "functional", "details": "48 h, read-out: TGI"}, "[5]": {"tested_on": "NCI-H460", "assay": "Induction of apoptosis in human NCI-H460 cells assessed as early apoptotic cells at 2 uM after 48 hrs by Annexin V-FITC/propidium iodide staining based flow cytometric analysis (reference value: 3.980 %)", "format": "functional"}, "[6]": {"tested_on": "NCI-H460", "assay": "Induction of cell cycle arrest in human NCI-H460 cells assessed as accumulation at G2/M phase at 1 uM incubated for 24 hrs by propidium iodide staining based flow cytometry (reference value: 16.71 %)", "format": "functional"}, "[7]": {"tested_on": "NCI-H460", "assay": "Induction of apoptosis in human NCI-H460 cells assessed as viable cells at 5 uM after 48 hrs by Annexin V-FITC/propidium iodide staining based flow cytometric analysis (reference value: 91.528 %)", "format": "functional", "details": "read-out: Activity"}, "[8]": {"tested_on": "NCI-H460", "assay": "Induction of cell cycle arrest in human NCI-H460 cells assessed as accumulation at G0/G1 phase at 5 uM incubated for 24 hrs by propidium iodide staining based flow cytometry (reference value: 53.97 %)", "format": "functional"}, "[9]": {"tested_on": "NCI-H460", "assay": "Induction of cell cycle arrest in human NCI-H460 cells assessed as accumulation at S phase at 1 uM incubated for 24 hrs by propidium iodide staining based flow cytometry (reference value: 29.32 %)", "format": "functional"}, "[10]": {"tested_on": "NCI-H460", "assay": "Induction of autophagy in human NCI-H460 cells assessed as degradation of SQSTM1/p62 at 0.5 to 10 uM measured after 24 hrs by Western blot analysis", "format": "functional, cell-based", "details": "dose 0.5-10 µM"}, "[11]": {"tested_on": "NCI-H460", "assay": "Induction of cell cycle arrest in human NCI-H460 cells assessed as accumulation at G0/G1 phase at 0.5 uM incubated for 24 hrs by propidium iodide staining based flow cytometry (reference value: 53.97 %)", "format": "functional"}, "[12]": {"tested_on": "NCI-H460", "assay": "Induction of apoptosis in human NCI-H460 cells assessed as necrotic cells at 1 uM after 48 hrs by Annexin V-FITC/propidium iodide staining based flow cytometric analysis (reference value: 0.498 %)", "format": "functional"}, "[13]": {"tested_on": "NCI-H460", "assay": "Induction of autophagy-induced cell death in human H460 cells at 0.04 to 5 uM after 24 hrs in presence of chloroquine diphosphate by MTT assay", "format": "functional, cell-based", "details": "dose 0.04-5 µM"}, "[14]": {"tested_on": "NCI-H460", "assay": "Induction of autophagy in human NCI-H460 cells assessed as up regulation of LC3-2 protein expression after 24 hrs by Western blot analysis", "format": "functional, cell-based", "details": "dose 0.5-10 µM"}, "[15]": {"tested_on": "A549", "assay": "Antiproliferative activity against human A549 cells expressing wild type EGFR assessed as reduction in cell viability after 72 hrs by MTT assay", "format": "functional, cell-based", "details": "A549, 72 h"}, "[16]": {"tested_on": "NCI-H460", "assay": "Induction of cell cycle arrest in human NCI-H460 cells assessed as accumulation at S phase at 5 uM incubated for 24 hrs by propidium iodide staining based flow cytometry (reference value: 29.32 %)", "format": "functional"}, "[17]": {"tested_on": "NCI-H460", "assay": "Induction of apoptosis in human NCI-H460 cells assessed as late apoptotic cells at 5 uM after 48 hrs by Annexin V-FITC/propidium iodide staining based flow cytometric analysis (reference value: 3.995 %)", "format": "functional"}, "[18]": {"assay": "Toxicity in nude BALB/c mouse xenografted with C26 cells assessed as abnormalities in heart size and morphology at 50 mg/kg, po administered once daily", "format": "organism-based", "details": "in vivo"}, "[19]": {"tested_on": "L929", "assay": "Cytotoxicity against mouse L929 cells", "format": "cell-based"}, "[20]": {"tested_on": "NCI-H460", "assay": "Induction of cell cycle arrest in human NCI-H460 cells assessed as accumulation at G0/G1 phase at 1 uM incubated for 24 hrs by propidium iodide staining based flow cytometry (reference value: 53.97 %)", "format": "functional"}, "[21]": {"tested_on": "NCI-H1650", "assay": "Antiproliferative activity against human NCI-H1650 cells expressing EGFR mutant assessed as reduction in cell viability after 72 hrs by MTT assay", "format": "functional, cell-based", "details": "NCI-H1650, 72 h"}, "[22]": {"tested_on": "NCI-H460", "assay": "Induction of autophagy in human NCI-H460 cells assessed as up regulation of Beclin 1 protein expression after 24 hrs by Western blot analysis", "format": "functional, cell-based", "details": "dose 0.5-10 µM"}, "[23]": {"tested_on": "NCI-H460", "assay": "Antiproliferative activity against human NCI-H460 cells assessed as reduction in cell viability after 72 hrs by MTT assay", "format": "functional, cell-based", "details": "NCI-H460, 72 h"}, "[24]": {"tested_on": "NCI-H460", "assay": "Induction of apoptosis in human NCI-H460 cells assessed as increase in cleaved caspase 3 expression level after 48 hrs by Western blot analysis", "format": "functional, cell-based", "details": "dose 0.5-10 µM"}, "[25]": {"tested_on": "NCI-H460", "assay": "Antitumor activity against human NCI-H460 cells xenografted in nude BABL/c mouse assessed as upregulation of LC3-II expression in tumor tissue at 20 mg/kg, po administered once daily in presence of chloroquine diphosphate by Western blot analysis", "format": "functional, organism-based"}, "[26]": {"assay": "Metabolic stability in human liver microsomes assessed as half life", "format": "ADME, Microsome"}, "[27]": {"tested_on": "HCC827", "assay": "Antiproliferative activity against human HCC827 cells assessed as reduction in cell viability after 72 hrs by MTT assay", "format": "functional, cell-based", "details": "HCC827, 72 h"}, "[28]": {"tested_on": "NCI-H441", "assay": "Antiproliferative activity against human NCI-H441 cells […] assessed as reduction in cell viability after 72 hrs by MTT assay", "format": "functional, cell-based", "details": "NCI-H441, 72 h"}, "[29]": {"tested_on": "NCI-H460", "assay": "Induction of apoptosis in human NCI-H460 cells assessed as early apoptotic cells at 10 uM after 48 hrs by Annexin V-FITC/propidium iodide staining based flow cytometric analysis (reference value: 3.980 %)", "format": "functional"}, "[30]": {"assay": "Toxicity in nude BALB/c mouse xenografted with C26 cells assessed as abnormalities in lung size and morphology at 50 mg/kg, po administered once daily", "format": "organism-based", "details": "in vivo"}, "[31]": {"tested_on": "NCI-H460", "assay": "Induction of apoptosis in human NCI-H460 cells assessed as late apoptotic cells at 10 uM after 48 hrs by Annexin V-FITC/propidium iodide staining based flow cytometric analysis (reference value: 3.995 %)", "format": "functional"}, "[32]": {"tested_on": "NCI-H460", "assay": "Induction of cell cycle arrest in human NCI-H460 cells assessed as accumulation at S phase at 0.5 uM incubated for 24 hrs by propidium iodide staining based flow cytometry (reference value: 29.32 %)", "format": "functional"}, "[33]": {"tested_on": "NCI-H460", "assay": "Induction of apoptosis in human NCI-H460 cells assessed as late apoptotic cells at 1 uM after 48 hrs by Annexin V-FITC/propidium iodide staining based flow cytometric analysis (reference value: 3.995 %)", "format": "functional"}, "[34]": {"assay": "Metabolic stability in human liver microsomes assessed as intrinsic clearance per gram protein", "format": "ADME, Microsome"}, "[35]": {"assay": "Toxicity in nude BALB/c mouse xenografted with human NCI-H460 cells assessed as abnormalities in tissue at 20 to 40 mg/kg, po administered once daily", "format": "organism-based", "details": "in vivo, dose 20-40 mg/kg"}}, "note": "The source made the active and inactive calls. The rule behind the calls is not given here."}
{"compound": "C=CCc1ccc(OC(C)C)c(-c2cc(CC=C)cc(CN3CCC(N)CC3)c2O)c1", "values": [{"measurement": "viability at 2 µM", "setting": "[1]", "value": 88.8, "unit": "%"}, {"measurement": "viability at 10 µM", "setting": "[2]", "value": 30, "unit": "%"}, {"measurement": "Activity", "setting": "[3]", "value": 0.874, "unit": "%"}, {"measurement": "inhibition in vivo at 40 mg/kg", "setting": "[4]", "value": 56.8, "unit": "%"}, {"measurement": "Activity", "setting": "[5]", "value": 5.363, "unit": "%"}, {"measurement": "Activity", "setting": "[6]", "value": 19.64, "unit": "%"}, {"measurement": "viability at 5 µM", "setting": "[7]", "value": 53.5, "unit": "%"}, {"measurement": "Activity", "setting": "[8]", "value": 59.89, "unit": "%"}, {"measurement": "Activity", "setting": "[9]", "value": 23.89, "unit": "%"}, {"measurement": "Activity", "setting": "[10]", "value": "Active"}, {"measurement": "Activity", "setting": "[11]", "value": 54.79, "unit": "%"}, {"measurement": "Activity", "setting": "[12]", "value": 0.394, "unit": "%"}, {"measurement": "Activity", "setting": "[13]", "value": "Active"}, {"measurement": "Activity", "setting": "[14]", "value": "Dose-dependent effect"}, {"measurement": "IC50", "setting": "[15]", "value": 910, "unit": "nM"}, {"measurement": "Activity", "setting": "[16]", "value": 22.61, "unit": "%"}, {"measurement": "Activity", "setting": "[17]", "value": 15.76, "unit": "%"}, {"measurement": "Activity", "setting": "[18]", "value": "Non-Toxic"}, {"measurement": "IC50", "setting": "[19]", "value": 6240, "unit": "nM"}, {"measurement": "Activity", "setting": "[20]", "value": 56.47, "unit": "%"}, {"measurement": "IC50", "setting": "[21]", "value": 820, "unit": "nM"}, {"measurement": "Activity", "setting": "[22]", "value": "Dose-dependent effect"}, {"measurement": "IC50", "setting": "[23]", "value": 860, "unit": "nM"}, {"measurement": "Activity", "setting": "[24]", "value": "Dose-dependent effect"}, {"measurement": "Activity", "setting": "[25]", "value": "Active"}, {"measurement": "half-life", "setting": "[26]", "value": 2.62, "unit": "h"}, {"measurement": "IC50", "setting": "[27]", "value": 630, "unit": "nM"}, {"measurement": "IC50", "setting": "[28]", "value": 940, "unit": "nM"}, {"measurement": "Activity", "setting": "[29]", "value": 34.82, "unit": "%"}, {"measurement": "Activity", "setting": "[30]", "value": "Non-Toxic"}, {"measurement": "Activity", "setting": "[31]", "value": 33.48, "unit": "%"}, {"measurement": "Activity", "setting": "[32]", "value": 23.58, "unit": "%"}, {"measurement": "Activity", "setting": "[33]", "value": 3.979, "unit": "%"}, {"measurement": "CLint", "setting": "[34]", "value": 8.8, "unit": "mL/min/g"}, {"measurement": "Activity", "setting": "[35]", "value": "Non-Toxic"}]}
